From US20220033407A1, “N-(pyridin-2-ylsulfonyl)cyclopropanecarboxamide Derivatives and their Use in the Treatment of Disease” (NOVARTIS AG, priority 2018, published 2022)

What was measured:
[1] = molecular target: T1, delF508-CFTR-HRP (Homo sapiens, UniProt P13569, DEL508-508); assay: Measurement of delF508-CFTR-HRP surface expression in CFBE41o- cells (HRP luminescence); format: cell-based; conditions: for EC50: mean of at least two replicates; for Emax: CFBE41o-, read-out: DelF508-CFTR-HRP Amax %;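 on DelF508-CFTR-HRP Amax %: percent efficacy relative to a reference CFTR corrector compound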
T1 construct: expressed in transfected cells
Outline: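 EC50 derived by logistic regression of triplicate surface-HRP luminescence, plate-normalized to the lowest-concentration median. Doxycycline (500 ng/mL, 48 h) induced delF508-CFTR-HRP in CFBE41o- cells; compounds then applied 24 h at 37° C, 10 μM top, 3-fold over 10 points.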

[2] = molecular target: T2, delF508-CFTR (Homo sapiens, UniProt P13569, DEL508-508); assay: delF508-CFTR functional activity in primary human bronchial epithelial cells (HBECs), Multi-Transepithelial Clamp Circuit (MTECC-24) assay, equivalent short circuit current; format: cell-based; conditions: primary CF HBECs; for MTECC24 CFHBEC-Amax %: relative to reference combination 2 μM 3-(6-(1-(2,2-difluorobenzo[d][1,3]dioxol-5-yl)cyclopropane-1-carboxamido)-3-methylpyridin-2-yl)benzoic acid (24 h) + 0.5 μM N-(2,4-di-tert-butyl-5-hydroxyphenyl)-4-oxo-1,4-dihydroquinoline-3-carboxamide; for EC50: test compound added 24 h before assay, potentiator (S)-3-amino-6-methoxy-N-(3,3,3-trifluoro-2-hydroxy-2-methylpropyl)-5-(trifluoromethyl)picolinamide present at assay, mean of at least two replicates, read-out: MTECC24 CFHBEC-EC50
T2 construct: functional activity of the CFTR channel (Chloride ion transport) in patient derived primary human bronchial epithelial cells; host or cells: patient-derived primary human bronchial epithelial cells (HBECs), delF508-CFTR
Text: Measurement of delF508-CFTR Functional Activity in Primary Human Bronchial Epithelial Cells (HBECs) Using Multi-Transepithelial Clamp Circuit (MTECC-24) Assay
This assay measures the functional activity of the CFTR channel (Chloride ion transport) in patient derived primary human bronchial epithelial cells with forskolin activation and in the presence of the CFTR corrector wherein the corrector is a compound of the invention and the potentiator is (S)-3-amino-6-methoxy-N-(3,3,3-trifluoro-2-hydroxy-2-methylpropyl)-5-(trifluoromethyl)picolinamide.
Primary human delF508-CFTR bronchial epithelial cells were purchased from Asterand and cultured according to previously established methods (Fulcher et al. (2005) Methods Mol Med 107: 183-206). Briefly, vendor supplied cells were rapidly defrosted and added to a T175 flask in 50 mL growth media (Lonza BEBM media with Lonza BEGM singlequots). Media was replaced after 24 h and then cells were fed every other day until cells were 80-90% confluent, at which point cells were cryopreserved. These P1 vials were thawed at 37° C. as needed and added to T175 flasks in 50 mL growth media at 5×10^5 cells/flask. Media was replaced after 24 h, and then cells were fed every other day until 80-90% confluent. Cells were lifted with 5 mL Accutase at 37° C. for 5 minutes, centrifuged at 1000 rpms for 5 min (300 g), and resuspended in differentiation media (50% BEBM in DMEM, BEGM singlequots, all trans retinoic acid (5×10·8M)). Cells were then counted and cell suspension was added to collagen coated inserts at 3×10^4 cells/insert in 0.15 mL with 0.5 mL differentiation media on the basolateral side.
Apical and basolateral media were replaced on alternate days, and following day 7 (or when confluent plus 2 days), air liquid interface was established for approximately two weeks by removal of apical media. One day prior to use on the MTECC24 system (EP-Devices, EP Design, Belgium), 0.15 mL of warmed (37° C.) PBS was added to the apical surface of the cultures and returned to humidifier (37° C., 5% CO2 incubator) for 30 min before aspirating the apical surface to remove any mucus.
Compound treatments were then prepared. Compound dilutions, typically a 10 point concentration response with 1 in 3 dilution steps, were made in 100% DMSO before dilution 1 in 1000 into differentiation medium with a final DMSO concentration of 0.1% or 0.2% for the study. Compound containing medium was then transferred into the wells of a 24 well plate at 0.5 mL per well and warmed for 30 min in a 37° C. incubator prior to transferring washed inserts into the compound containing plates. Cells were incubated in compound containing medium (basolateral only) for 24 h prior to measurement in the MTECC24 system.
Following 24 hr treatment, compound dilutions were prepared again, diluted 1 in 1000 into 37° C. assay medium (F-12 Coon's modified, 20 mM HEPES pH7.4 with TRIS Base, No FCS or bicarbonate). Cells which were treated for 24 h with test compound were then transferred into plates containing 0.75 mL compound treatment in assay medium (basolateral) and 0.25 mL of the compound containing assay medium was added to the apical surface. The plates were then transferred to the heated plate compartments of the MTECC24 system for 45 min prior to measurements (this can also be done in a non-CO2 37° C. humidified incubator). Basolateral temperature should not exceed 36.5° C. and apical temperature should be approximately 35.5° C.
Modulators were added sequentially as follows while the MTECC24 instrument recorded the equivalent short circuit current (Ieq)
Prior to dilution into F-12 medium the stocks are as follows: Amiloride stock is 10 mM in H2O
Forskolin Stock is 10 mM in 100% DMSO
(S)-3-amino-6-methoxy-N-(3,3,3-trifluoro-2-hydroxy-2-methylpropyl)-5-(trifluoromethyl)picolinamide is 0.5 mM stock in 100% DMSO INH-172 (4-[[4-Oxo-2-thioxo-3-[3-trifluoromethyl)phenyl]-5-thiazolidinylidene]methyl]benzoic acid) stock is 30 mM in 100% DMSO […]

T1 sequence (P13569 with tags, fused parts or gaps DEL508-508): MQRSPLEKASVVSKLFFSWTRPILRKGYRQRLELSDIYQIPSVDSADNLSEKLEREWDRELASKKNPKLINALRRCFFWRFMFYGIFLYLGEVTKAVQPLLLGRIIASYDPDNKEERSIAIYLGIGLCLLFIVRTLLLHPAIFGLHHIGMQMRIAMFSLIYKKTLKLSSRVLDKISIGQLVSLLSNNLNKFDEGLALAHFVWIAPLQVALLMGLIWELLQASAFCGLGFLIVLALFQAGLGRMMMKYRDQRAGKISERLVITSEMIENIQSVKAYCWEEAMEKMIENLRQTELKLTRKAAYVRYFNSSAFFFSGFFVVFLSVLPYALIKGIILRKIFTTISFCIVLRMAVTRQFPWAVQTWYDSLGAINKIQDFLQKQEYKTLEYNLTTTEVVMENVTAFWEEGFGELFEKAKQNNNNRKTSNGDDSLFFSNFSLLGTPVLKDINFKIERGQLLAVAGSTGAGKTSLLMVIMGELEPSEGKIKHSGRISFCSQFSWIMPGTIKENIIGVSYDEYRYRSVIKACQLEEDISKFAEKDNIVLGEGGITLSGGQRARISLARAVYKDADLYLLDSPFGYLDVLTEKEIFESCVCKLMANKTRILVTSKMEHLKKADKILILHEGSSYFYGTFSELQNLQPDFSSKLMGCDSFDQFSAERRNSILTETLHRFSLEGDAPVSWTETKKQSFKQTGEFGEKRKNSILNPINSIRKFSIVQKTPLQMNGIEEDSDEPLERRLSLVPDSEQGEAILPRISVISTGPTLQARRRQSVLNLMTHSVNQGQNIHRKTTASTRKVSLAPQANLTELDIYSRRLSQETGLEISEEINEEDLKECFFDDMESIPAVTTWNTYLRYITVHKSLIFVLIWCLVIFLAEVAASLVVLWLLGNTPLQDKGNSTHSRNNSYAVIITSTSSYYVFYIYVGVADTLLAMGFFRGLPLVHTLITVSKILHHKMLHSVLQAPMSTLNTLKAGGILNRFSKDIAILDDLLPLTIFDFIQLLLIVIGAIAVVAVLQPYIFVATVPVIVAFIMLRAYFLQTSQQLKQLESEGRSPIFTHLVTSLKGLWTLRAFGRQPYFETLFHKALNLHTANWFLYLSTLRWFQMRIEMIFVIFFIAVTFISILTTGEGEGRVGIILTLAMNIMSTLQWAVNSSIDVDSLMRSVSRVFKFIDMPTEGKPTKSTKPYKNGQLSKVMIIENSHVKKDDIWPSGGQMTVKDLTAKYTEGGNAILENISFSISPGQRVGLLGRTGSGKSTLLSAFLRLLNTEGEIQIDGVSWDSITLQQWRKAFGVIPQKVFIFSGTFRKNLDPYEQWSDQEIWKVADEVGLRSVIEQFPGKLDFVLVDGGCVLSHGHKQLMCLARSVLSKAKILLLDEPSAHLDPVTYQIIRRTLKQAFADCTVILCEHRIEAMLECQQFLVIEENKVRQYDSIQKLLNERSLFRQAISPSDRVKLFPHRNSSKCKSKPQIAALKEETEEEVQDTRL
T2 sequence (P13569 with tags, fused parts or gaps DEL508-508): as above

| DelF508-CFTR-HRP Amax % [1] [%] | EC50 [1] [nM] | MTECC24 CFHBEC-Amax % [2] [%] | EC50 [2] [nM] | Emax [1] [%] | Compound |
| --- | --- | --- | --- | --- | --- |
| 460.1 | 2260 | 60.8 | 1080 | – | Cc1ccc(C2CCC3(CCC3)OC2)c(OC2(C(=O)NS(=O)(=O)c3cccc(N4CCC(C)(O)CC4)n3)CC2)c1 (single isomer, unassigned) [Example 11-4-1, N-((6-(4-hydroxy-4-methylpiperidin-1-yl)pyridin-2-yl)sulfonyl)-1-(5-methyl-2-(5-oxaspiro[3.5]nonan-7-yl)phenoxy)cyclopropane-1-carboxamide] |
| – | 2380 | 46 | 6 | 165 | Cc1ccc(C2(C(F)(F)F)CC2)c(OC2(C(=O)NS(=O)(=O)c3cccc(N)n3)CCCC2)c1 [Example 1-8, N-((6-Aminopyridin-2-yl)sulfonyl)-1-(5-methyl-2-(1-(trifluoromethyl)cyclopropyl)phenoxy)cyclopentane-1-carboxamide] |
| – | 1420 | 214.4 | 289 | 674 | C[C@]1(O)CCN(c2cccc(S(=O)(=O)NC(=O)C3(Oc4cc(Cl)ccc4C4CC5(CCC5)C4)CC3)n2)C1 (single isomer, unassigned) [Example 7-2-1] |
| – | 1020 | 135.1 | 132 | 794 | O=C(NS(=O)(=O)c1cccc(N2CC[C@H](O)C2)n1)C1(Oc2cc(Cl)ccc2C2CC3(CCC3)C2)CC1 [Example 7-3, (S)-1-(5-chloro-2-(spiro[3.3]heptan-2-yl)phenoxy)-N-((6-(3-hydroxypyrrolidin-1-yl)pyridin-2-yl)sulfonyl)cyclopropanecarboxamide] |
| – | 1850 | 66 | 4 | 330 | Cc1ccc(C2CCCCC2)c(OC2(C(=O)NS(=O)(=O)c3cccc(N4CCC(C)(NC(=S)NC5CC5)CC4)n3)CC2)c1 [Example 2-23, 1-(2-Cyclohexyl-5-methylphenoxy)-N-((6-(4-(3-cyclopropylthioureido)-4-methylpiperidin-1-yl)pyridin-2-yl)sulfonyl)cyclopropanecarboxamide] |
| – | 2050 | 94 | 71 | 242 | O=C(NS(=O)(=O)c1cccc(N2CC[C@H](O)C2)n1)C1(Oc2cc(C(F)(F)F)ccc2-c2cccc(C(F)(F)F)c2)CC1 [Example 5-5, (S)-1-((3′,4-Bis(trifluoromethyl)-[1,1′-biphenyl]-2-yl)oxy)-N-((6-(3-hydroxypyrrolidin-1-yl)pyridin-2-yl)sulfonyl)cyclopropane-1-carboxamide] |
| – | 1410 | 83 | 50 | 591 | C[C@@H]1CN(c2cccc(S(=O)(=O)NC(=O)C3(Oc4cc(Cl)ccc4C4CCC(C)(C)CC4)CC3)n2)CCO1 [Example 4-13, (R)-1-(5-Chloro-2-(4,4-dimethylcyclohexyl)phenoxy)-N-((6-(2-methylmorpholino)pyridin-2-yl)sulfonyl)cyclopropane-1-carboxamide] |
| – | 760 | 203.9 | 116 | 446 | CC(C)(C)C1CCC(Oc2ccc(Cl)cc2OC2(C(=O)NS(=O)(=O)c3cccc(N4CC[C@H](O)C4)n3)CC2)CC1 (stereo partly drawn) [Example 6-7, (S)-1-(2-((4-(tert-butyl)cyclohexyl)oxy)-5-chlorophenoxy)-N-((6-(3-hydroxypyrrolidin-1-yl)pyridin-2-yl)sulfonyl)cyclopropanecarboxamide] |
| – | 2910 | 98.5 | 832 | 729 | O=C(NS(=O)(=O)c1cccc(N2CC[C@H](O)C2)n1)C1(Oc2cc(Cl)ccc2N2CC3(CCC3)C2)CC1 [Example 9-20, (S)-1-(5-Chloro-2-(2-azaspiro[3.3]heptan-2-yl)phenoxy)-N-((6-(3-hydroxypyrrolidin-1-yl)pyridin-2-yl)sulfonyl)cyclopropanecarboxamide] |
| – | 1300 | 148.1 | 548 | 510 | O=C(NS(=O)(=O)c1cccc(N2CC[C@H](O)C2)n1)C1(Oc2cc(Cl)ccc2N2CC3CCC(C3)C2)CC1 [Example 9-18, 1-(2-(3-Azabicyclo[3.2.1]octan-3-yl)-5-chlorophenoxy)-N-((6-((S)-3-hydroxypyrrolidin-1-yl)pyridin-2-yl)sulfonyl)cyclopropanecarboxamide] |
| – | 1060 | 206.5 | 294 | 647 | O=C(NS(=O)(=O)c1cccc(N2CC[C@H](O)C2)n1)C1(Oc2cc(Cl)ccc2N2CC3(CCCCC3)C2)CC1 [Example 9-1, (S)-1-(5-chloro-2-(2-azaspiro[3.5]nonan-2-yl)phenoxy)-N-((6-(3-hydroxypyrrolidin-1-yl)pyridin-2-yl)sulfonyl)cyclopropanecarboxamide] |
| – | 940 | 101 | 3 | 284 | Cc1ccc(C2CCCCC2)c(OC2(C(=O)NS(=O)(=O)c3cccc(N4CCC(C)(C#N)CC4)n3)CC2)c1 [Example 2-15, N-((6-(4-cyano-4-methylpiperidin-1-yl)pyridin-2-yl)sulfonyl)-1-(2-cyclohexyl-5-methylphenoxy)cyclopropanecarboxamide] |
| – | 730 | 63 | 16 | 389 | Cc1ccc(C2CCCCC2)c(OC2(C(=O)NS(=O)(=O)c3cccc(N4CCC(C(=O)OC5CCCC5)CC4)n3)CC2)c1 [Example 2-7] |
| 380.3 | 680 | 100.3 | 117 | – | Cc1ccc(C2CCC3(CCCC3)OC2)c(OC2(C(=O)NS(=O)(=O)c3cccc(N4CCC(O)(c5ccc(Cl)cc5)CC4)n3)CC2)c1 (single isomer, unassigned) [Example 11-3-1, N-((6-(4-(4-chlorophenyl)-4-hydroxypiperidin-1-yl)pyridin-2-yl)sulfonyl)-1-(5-methyl-2-(6-oxaspiro[4.5]decan-8-yl)phenoxy)cyclopropane-1-carboxamide] |

| Compound | DelF508-CFTR-HRP Amax % [1] [%] | EC50 [1] [nM] | MTECC24 CFHBEC-Amax % [2] [%] | EC50 [2] [nM] | Emax [1] [%] |
| --- | --- | --- | --- | --- | --- |
| Cc1ccc(-c2cc(F)cc(OCC(C)C)c2)c(OC2(C(=O)NS(=O)(=O)c3cccc(N)n3)CC2)c1 [Example 1-2, N-((6-Aminopyridin-2-yl)sulfonyl)-1-((3′-fluoro-5′-isobutoxy-4-methyl-[1,1′-biphenyl]-2-yl)oxy)cyclopropane-1-carboxamide] | – | 2440 | 89 | 45 | 136 |
